Experimental data from publication PMC7560154, “Novel Antimicrobial Peptide from Temporin L in The Treatment of Staphylococcus pseudintermedius and Malassezia pachydermatis in Polymicrobial Inter-Kingdom Infection” (Antibiotics, 2020).
Where a SMILES comes first, the peptide text is derived from it. [ ]: non-standard residue; d: D form.

What was measured:
mecA gene expression = mecA gene expression by RT-PCR; type: cell-based, Staphylococcus pseudintermedius
Description: The reaction was carried out in a DNA thermal cycler (MyCycler, Bio-Rad, Hercules, CA, USA). The PCR products were analysed by electrophoresis on 1.8% agarose gel in TBE and analysed on a Gel Doc EZ System (Bio-Rad, Hercules, CA, USA). RNA extraction was performed by using GenUp Total RNA kit (BiotechRabbit, Berlin, Germany) according to the manufacturer’s instructions. Five hundred nanograms of total cellular RNA were reverse-transcribed (RevertUP II Reverse Transcriptase, BiotechRabbit, Berlin, Germany) into cDNA using random hexamer primers (Random hexamer, Roche Diagnostics, Mannheim, Germany) at 48 °C for 60 min according to the manufacturer’s instructions. RT-PCR was carried out using 2 μL of cDNA, as reported above. Quantification data were normalized to the reference gene for 16S rRNA gene and analyzed by Image Lab software 5.2.1 (Bio-Rad, Hercules, CA, USA).

circulating blood cells = settings: cited from earlier work
[1] = ref unpublished results, cited from earlier work

CC[C@H](C)[C@H](NC(=O)[C@H](CCCNC(=N)N)NC(=O)[C@@H](CCCCN)NC(=O)[C@@H](CC(C)C)NC(=O)[C@H](Cc1ccccc1)NC(=O)[C@H](CCCCN)NC(=O)[C@H](CO)NC(=O)[C@H](Cc1ccccc1)NC(=O)[C@H](Cc1c[nH]c2ccccc12)NC(=O)[C@@H]1CCCN1C(=O)[C@@H](NC(=O)[C@@H](N)Cc1ccccc1)C(C)C)C(=O)N[C@@H](CC(C)C)C(N)=O [Peptide 8] (H-FVPWFSKF[dL][dK]RIL-NH2; N-terminus assumed)
Regulation of mecA gene expression (mecA gene expression): did not regulate mecA gene expression
Hemolytic activity (circulating blood cells): did not show hemolytic activity
Aggregation state and conformation in aqueous solution ([1]; aqueous solution): monomeric with a random coil conformation
Aggregation in membrane mimetic environments ([1]; membrane mimetic environments): significant ability to aggregate
